Source: paper PMC3440086, “Profiling Environmental Chemicals for Activity in the Antioxidant Response Element Signaling Pathway Using a High Throughput Screening Approach” (Environmental Health Perspectives, 2012)
Entries after “also recorded” stand apart in the source; their conditions may differ. Read-outs that look alike come from different tables or passages of the source.

Columns and labels:
[1] = tested on: Nrf2-dependent ARE transcriptional activity; experiment: ARE-luc luciferase reporter gene assay in HepG2 cells (qHTS); assay type: cell-based; settings: for EC50: read-out: ARE-luc EC50; for Emax: read-out: ARE-luc Efficacy
[2] = tested on: antioxidant response element (ARE) signaling pathway; experiment: ARE-bla β-lactamase reporter gene assay in HepG2 cells (qHTS); assay type: cell-based, human; settings: for EC50: read-out: ARE-bla EC50; for Emax: read-out: ARE-bla Efficacy
[3] = tested on: mutated ARE; assay type: cell-based; settings: for ARE-bla mutant Efficacy: normalized to DMSO (0%) and ARE-bla maximal β-napthoflavone response (100%)
[4] = confirmation/follow-up studies, HepG2, 16 hr exposure, mean ± SD
[5] = follow-up studies, up to 46 µM, listed as 1,10-phenanthroline monohydrate
[6] = primary qHTS screening, 0.59 nM to 92 µM
[7] = confirmation/follow-up studies, HepG2, mean ± SD
[8] = Homo sapiens, HepG2, confirmation/follow-up studies, activation of ARE reporter as % of positive control (β-napthoflavone)
[9] = Homo sapiens, confirmation/follow-up studies, HepG2, 16 hr exposure, mean ± SD
[10] = Homo sapiens, HepG2, confirmation/follow-up studies, […]
[11] = confirmation/follow-up studies, […]
[12] = follow-up studies, up to 46 µM, listed as 3-dimethylaminophenol

Compound	ARE-luc EC50 [1, 4]	activity in ARE-bla assay (words) ([2]; follow-up studies, up to 46 µM)	ARE-bla mutant IC50 [3, 7]	EC50 [1, 9] [µM]	Emax [2, 8] [%]	EC50 [2, 9] [µM]	also measured
1,3-Dinitronapthalene	–	–	–	–	–	–	ARE-luc Efficacy [1]: 180%; EC50 [1]: 16.2 ± 11 µM; ARE-bla Efficacy [2]: 80%; EC50 [2]: 1.2 ± 0.2 µM; ARE-bla mutant IC50 [3]: inactive
O.c1cnc2c(c1)ccc1cccnc12 [1,10-Phenanthroline monohydrate]	inactive	inactive in all assays	inactive	–	–	–	activity in ARE-luc assay (words) ([1]; follow-up studies, up to 46 µM): inactive in all assays; activity in ARE-luc assay (words) [1, 5]: inactive across all assays; activity in ARE-bla assay (words) [2, 5]: inactive across all assays; activity in ARE-bla assay (words) [2, 6]: showed activity; activity in ARE-bla-mut assay (words) ([3]; follow-up studies, up to 46 µM): inactive in all assays; activity in ARE-bla-mut assay (words) [3, 5]: inactive across all assays
O=[N+]([O-])c1cc(Cl)c(Cl)c(Cl)c1Cl [2,3,4,5-Tetrachloronitrobenzene]	–	–	inactive	27.7 ± 6.7	56	9.4 ± 3.2	Emax [1, 8]: 124%
Nc1cc(Cl)ccc1O [2-Amino-4-chlorophenol]	–	–	inactive	6.3 ± 2.1	–	7 ± 1.8	Emax [1, 8]: 175%; Emax [2, 10]: 72%
Cc1cccc2sc(N)nc12 [2-Amino-4-methylbenzothiazole]	inactive	active only in the ARE-bla assay	inactive	–	49	10.1 ± 2.1	–
Cc1ccc(O)c(N)c1 [2-Amino-4-methylphenol]	–	–	inactive	24 ± 7.1	76	12 ± 4.8	Emax [1, 8]: 90%
Nc1nc2ccc([N+](=O)[O-])cc2s1 [2-Amino-6-nitrobenzothiazole]	inactive	active only in the ARE-bla assay	inactive	–	107	16.7 ± 9.6	–
Nc1ccc(N)c(Cl)c1.O=S(=O)(O)O [2-Chloro-p-phenylenediamine SO4]	–	–	inactive	–	–	–	EC50 [1, 4]: 26.5 ± 6 µM; ARE-luc Efficacy [1, 11]: 83%; EC50 [2, 4]: 17.1 ± 4.1 µM; ARE-bla Efficacy [2, 11]: 72%
Nc1cc(Cl)cc(Cl)c1 [3,5-Dichloroaniline]	inactive	–	inactive	–	–	–	ARE-bla EC50 [2, 4]: inactive
CN(C)c1cccc(O)c1 [3-Dimethylaminophenol]	–	inactive in all assays	inactive	–	–	–	activity in ARE-luc assay (words) ([1]; follow-up studies, up to 46 µM): inactive in all assays; activity in ARE-luc assay (words) [1, 12]: inactive; activity in ARE-bla assay (words) [2, 12]: inactive; activity in ARE-bla-mut assay (words) ([3]; follow-up studies, up to 46 µM): inactive in all assays
Nc1ccc(Cl)cc1N [4-Chloro-o-phenylenediamine]	–	inactive	inactive	27.2 ± 3.7	–	–	Emax [1, 10]: 111%; activity in ARE-bla assay (words) [2, 6]: showed activity
CCOCN(C(=O)CCl)c1c(C)cccc1CC [Acetochlor]	–	active; also recorded: demonstrated activity	inactive	21.9 ± 5.3	86	4.7 ± 1.6	Emax [1, 8]: 78%; activity in ARE-luc assay (words) ([1]; follow-up studies, up to 46 µM): active; also recorded: demonstrated activity; activity in ARE-luc assay (words) [1, 6]: high-quality active; activity in ARE-bla assay (words) [2, 6]: high-quality active
c1ccc2c(c1)-c1cccc3c1c-2cc1ccccc13 [Benzo(b)fluoranthene]	–	–	–	1.3 ± 1	–	5.9 ± 3	Emax [1, 10]: 19%; Emax [2, 10]: 136%; activity in ARE-bla-mut assay (words) [3]: may exhibit autofluorescence; ARE-bla mutant Efficacy ([3]; confirmation/follow-up studies): 134%
c1ccc2cc3c(cc2c1)-c1cccc2cccc-3c12 [Benzo(k)fluoranthene]	–	–	–	4.9 ± 2.2	–	1.6 ± 0.7	Emax [1, 10]: 103%; Emax [2, 10]: 114%; activity in ARE-bla-mut assay (words) [3]: may exhibit autofluorescence; ARE-bla mutant Efficacy ([3]; confirmation/follow-up studies): 160%
CC(C)(c1ccc(O)cc1)c1ccc(O)cc1 [Bisphenol A]	inactive	–	inactive	–	48	12.5 ± 5.6	–
[Cd+2].[Cl-].[Cl-] [Cadmium II chloride]	–	–	–	–	–	–	ARE-luc Efficacy [1]: 446; EC50 [1]: 1.1 ± 0.1 µM; ARE-bla EC50 [2]: inactive; ARE-bla mutant IC50 [3]: inactive
